Experimental data published in the NIST ThermoML archive (doi:10.1021/je1005533).

Assay: refractive index (other wavelength) (dimensionless); xn = mol fraction of the nth substance listed
Conditions: 101.3 kPa, Liquid, Wavelength=632.8 nm, Standard Abbe refractometry

CCCCCCCCCCCCCCCC [hexadecane] + COC(=O)OC
Conditions | refractive index
308.19 K, x2 = 0.132 | 1.4228
308.21 K, x2 = 0 | 1.427
308.29 K, x2 = 0.397 | 1.4128
308.35 K, x2 = 0.219 | 1.4197
308.4 K, x2 = 0.291 | 1.417
309.24 K, x2 = 0 | 1.4265
309.25 K, x2 = 0.132 | 1.4224
309.32 K, x2 = 0.397 | 1.4123
309.54 K, x2 = 0.291 | 1.4164
309.66 K, x2 = 0.219 | 1.4191
310.21 K, x2 = 0 | 1.4261
310.33 K, x2 = 0.132 | 1.4219
310.38 K, x2 = 0.397 | 1.4118
310.83 K, x2 = 0.291 | 1.4158
311.09 K, x2 = 0.219 | 1.4185
311.24 K, x2 = 0 | 1.4256
311.39 K, x2 = 0.132 | 1.4214
311.42 K, x2 = 0.397 | 1.4113
312.09 K, x2 = 0.291 | 1.4153
312.18 K, x2 = 0.6 | 1.4005
312.2 K, x2 = 0.517 | 1.4052
312.3 K, x2 = 0 | 1.4252
312.43 K, x2 = 0.132 | 1.421
312.46 K, x2 = 0.397 | 1.4108
312.54 K, x2 = 0.219 | 1.4179
313.16 K, x2 = 0.517 | 1.4048
313.32 K, x2 = 0.6 | 1.3999
313.33 K, x2 = 0.291 | 1.4147
313.34 K, x2 = 0 | 1.4248
313.51 K, x2 = 0.132 | 1.4206
313.53 K, x2 = 0.397 | 1.4104
313.95 K, x2 = 0.219 | 1.4173
314.26 K, x2 = 0.517 | 1.4043
314.44 K, x2 = 0 | 1.4244
314.44 K, x2 = 0.6 | 1.3994
314.55 K, x2 = 0.132 | 1.4201
314.62 K, x2 = 0.397 | 1.41
314.63 K, x2 = 0.291 | 1.4142
315.34 K, x2 = 0.517 | 1.4038
315.5 K, x2 = 0.6 | 1.3989
315.54 K, x2 = 0 | 1.4239
315.57 K, x2 = 0.132 | 1.4197
315.59 K, x2 = 0.219 | 1.4166
315.71 K, x2 = 0.397 | 1.4094
315.92 K, x2 = 0.291 | 1.4136
316.19 K, x2 = 0.689 | 1.3925
316.42 K, x2 = 0.517 | 1.4033
316.45 K, x2 = 0.804 | 1.3827
316.55 K, x2 = 0 | 1.4235
316.56 K, x2 = 0.6 | 1.3984
316.64 K, x2 = 0.132 | 1.4192
316.73 K, x2 = 0.397 | 1.409
316.86 K, x2 = 0.872 | 1.3751
317.02 K, x2 = 0.689 | 1.3921
317.08 K, x2 = 0.219 | 1.416
317.2 K, x2 = 0.291 | 1.4131
317.25 K, x2 = 0.804 | 1.3823
317.51 K, x2 = 0.517 | 1.4028
317.56 K, x2 = 0 | 1.4231
317.67 K, x2 = 0.132 | 1.4188
317.67 K, x2 = 0.6 | 1.3979
317.74 K, x2 = 0.872 | 1.3747
317.81 K, x2 = 0.397 | 1.4085
317.89 K, x2 = 0.689 | 1.3917
318.06 K, x2 = 0.804 | 1.3819
318.49 K, x2 = 0.291 | 1.4125
318.5 K, x2 = 0.219 | 1.4154
318.55 K, x2 = 0.872 | 1.3743
318.61 K, x2 = 0 | 1.4226
318.74 K, x2 = 0.132 | 1.4183
318.84 K, x2 = 0.689 | 1.3913
318.89 K, x2 = 0.397 | 1.408
318.91 K, x2 = 0.804 | 1.3815
319.4 K, x2 = 0.872 | 1.3739
319.74 K, x2 = 0.689 | 1.3909
319.79 K, x2 = 0.804 | 1.381
320.28 K, x2 = 0.872 | 1.3735
320.64 K, x2 = 0.804 | 1.3806
